Values of other authors in patent publication US20080095722A1, “Extended Surface Aggregates in the Treatment of Skin Conditions” (IDEA AG, priority 2004, published 2008).
Where two headings read alike, the source gives them in different places.

Key:
melanocytes = settings: cell cultures, cited from earlier work
erythema = settings: gel base or alcoholic solution; cited from earlier work

| SMILES | effect on melanocytes (melanocytes; low concentrations) | effect on melanocytes (melanocytes; very high concentrations) | inhibition of the appearance of erythema (erythema) |
| --- | --- | --- | --- |
| CC(=O)Oc1ccccc1C(=O)O [acetylsalicylic acid] | stimulate melanocytes | may cause melanocyte apoptosis |  |
| COc1ccc2c(c1)c(CC(=O)O)c(C)n2C(=O)c1ccc(Cl)cc1 [indomethacin] |  |  | some inhibition of the appearance of erythema |
